In patent US4181728A, “Spiro-polycyclicimidazolidinedione derivatives” (Pfizer Inc., priority 1978, dated 1980):

What was measured:
[1] = molecular target: T1, aldose reductase enzyme obtained from calf lens (Bos taurus, UniProt P16116); test: Aldose reductase inhibitory activity (partially purified calf lens enzyme); type: biochemical; conditions: 10^-4 M, * = average of 2 or 3 tests (Examples 2, 5, 6, 7)
T1 construct: partially purified aldose reductase enzyme obtained from calf lens; from tissue; host or cells: calf lens
Protocol: The Examples of spiro-polycyclicimidazolidinedione derivatives prepared above were tested for their ability to reduce or inhibit aldose reductase enzyme activity, following the procedure described in U.S. Pat. No. 3,821,383 and based on the procedure of Hayman et. al., Journal of Biological Chemistry, 240, 877 (1965). The substrate employed was partially purified aldose reductase enzyme obtained from calf lens. The drug was tested at a concentration of 10^-4 M and optionally at lower concentrations and the results are expressed as percent inhibition of enzyme activity.
*This number represents an average of 2 or 3 tests.

[2] = system: sorbitol accumulation in the sciatic nerve; test: Inhibition of sorbitol accumulation in the sciatic nerve of streptozotocinized (diabetic) rats; type: in vivo, rat; conditions: measured 27 h after induction, vs untreated
Protocol: Some of the Examples of spiro-polycyclicimidazolidinedione derivatives prepared above were also tested for their ability to reduce or inhibit sorbitol accumulation in the sciatic nerve of streptozotocinized (i.e., diabetic) rats by the procedure essentially described in U.S. Pat. No. 3,821,383. In the present study, the amount of sorbitol accumulation in the sciatic nerves was measured 27 hours after induction of diabetes. The compounds were administered orally at the dose level indicated at 4, 8 and 24 hours following the administration of streptozotocin. The results obtained in this manner are presented in terms of percent inhibition (%) afforded by the test compound as compared to the case where no compound was administered (i.e., the untreated animal where sorbitol levels normally rise from approximately […] tissue to as high as 400 mM/g tissue in the 27-hour test period).

[3] = 1.5 mg/kg oral at 4, 8 and 24 h after streptozotocin
[4] = 5.0 mg/kg oral at 4, 8 and 24 h after streptozotocin

inhibition at 100 µM [1] [%]	Structure (SMILES)	% Inhibition of sorbitol accumulation [2, 3]	% Inhibition of sorbitol accumulation [2, 4] [%]
26	O=C1NC(=O)C2(CCCc3ccc4cc5ccccc5cc4c32)N1 (centres unmarked) [Example 3, 1',2',3',4'-tetrahydro-spiro[imidazolidine-4,1'-benz[a]anthracene]-2,5-dione]	–	–
100	O=C1NC(=O)C2(CCSc3c2ccc2ccccc32)N1 (centres unmarked) [Example 4, 2',3'-dihydro-spiro[imidazolidine-4,4'-[4'H]-naphtho[1,2-b]thiopyran]-2,5-dione]	32%	–
78	O=C1NC(=O)C2(CCOc3c2cc(Cl)c2ccccc32)N1 (centres unmarked) [Example 5, 5',6'-dihydro-6'-chloro-spiro[imidazolidine-4,4'-[4'H]-naphtho[1,2-b]pyran]-2,5-dione]	–	58
59	O=C1NC(=O)C2(CCSc3ccc4ccccc4c32)N1 (centres unmarked) [Example 1, 2',3'-dihydro-spiro[imidazolidine-4,4'-[4'H]-naphtho[2,1-b]thiopyran]-2,5-dione]	–	–
72	O=C1NC(=O)C2(CCOc3c2ccc2ccccc32)N1 (centres unmarked) [Example 9, 2',3'-dihydro-spiro[imidazolidine-4,4'-[4'H]-naphtho[1,2-b]pyran]-2,5-dione]	30%	–
94	COc1cccc2c3c(ccc12)C1(CCO3)NC(=O)NC1=O (centres unmarked) [Example 2, 2',3'-dihydro-7'-methoxy-spiro[imidazolidine-4,4'-[4'H]-naphtho[1,2-b]pyran]-2,5-dione]	no effect	–
60	O=C1NC(=O)C2(CCCc3ccc4ccccc4c32)N1 (centres unmarked) [Example 10, 1',2',3',4'-tetrahydro-spiro[imidazolidine-4,4'-phenanthrene]-2,5-dione]	–	–
71	O=C1NC(=O)C2(CCc3cccc4cccc2c34)N1 (centres unmarked) [Example 8, 2',3'-dihydro-spiro[imidazolidine-4,1'-phenalene]-2,5-dione]	–	28
86	O=C1NC(=O)C2(CCCc3c2ccc2ccccc32)N1 (centres unmarked) [Example 7, 1',2',3',4'-tetrahydro-spiro[imidazolidine-4,1'-phenanthrene]-2,5-dione]	no effect	–
78	O=C1NC(=O)C2(CCOc3ccc4ccccc4c32)N1 (centres unmarked) [Example 6, 2',3'-dihydro-spiro[imidazolidine-4,4'-[4'H]-naphtho[2,1-b]pyran]-2,5-dione]	no effect	–
